Reference: patent US20250320140A1, “USE OF MEDIUM CHAIN PERACIDS FOR BIOFILM INHIBITION IN INDUSTRIAL RECIRCULATING WATER SYSTEMS” (ECOLAB USA INC., priority 2017, published 2025)

Experiment: Solubility of sulfonated peracids at pH 4
Format: physicochemical
Conditions: pH of 4

solubility: about 1.3%
SMILES: O=C(CCCCCCCCCCS(=O)(=O)O)OO [11-sulfoundecane peroxoic acid]
